Assay results published in publication PMC4577731, “Discovery, synthesis and biochemical profiling of purine-2,6-dione derivatives as inhibitors of the human poly(A)-selective ribonuclease Caf1” (Bioorganic & Medicinal Chemistry Letters, 2015).
Like-named read-outs stand apart in the source and are kept apart here.

What was measured:
Caf1 = Caf1 (Homo sapiens, UniProt Q9UIV1); assay: Fluorescence-based biochemical assay of Caf1 ribonuclease activity
Procedure: Following LC–MS and solubility analysis, five compounds were evaluated for their ability to inhibit Caf1 activity using a fluorescence-based biochemical assay (Fig. 1B).[22]
Reactions contained no enzyme (control), complete reactions (enzyme) or complete reactions in the presence of the indicated compound. […] Error bars represent the standard deviation.

PARN = molecular target: T1, PARN (Homo sapiens, UniProt O95453); assay: Fluorescence-based biochemical assay of PARN ribonuclease activity; settings: for inhibition of PARN ribonuclease activity (in words): Fig. 3, compounds used at 10 μM (5h–k); for IC50: fluorescence-based biochemical assay, ± standard error of the mean (n = 3)
T1 sequence (O95453 1-639): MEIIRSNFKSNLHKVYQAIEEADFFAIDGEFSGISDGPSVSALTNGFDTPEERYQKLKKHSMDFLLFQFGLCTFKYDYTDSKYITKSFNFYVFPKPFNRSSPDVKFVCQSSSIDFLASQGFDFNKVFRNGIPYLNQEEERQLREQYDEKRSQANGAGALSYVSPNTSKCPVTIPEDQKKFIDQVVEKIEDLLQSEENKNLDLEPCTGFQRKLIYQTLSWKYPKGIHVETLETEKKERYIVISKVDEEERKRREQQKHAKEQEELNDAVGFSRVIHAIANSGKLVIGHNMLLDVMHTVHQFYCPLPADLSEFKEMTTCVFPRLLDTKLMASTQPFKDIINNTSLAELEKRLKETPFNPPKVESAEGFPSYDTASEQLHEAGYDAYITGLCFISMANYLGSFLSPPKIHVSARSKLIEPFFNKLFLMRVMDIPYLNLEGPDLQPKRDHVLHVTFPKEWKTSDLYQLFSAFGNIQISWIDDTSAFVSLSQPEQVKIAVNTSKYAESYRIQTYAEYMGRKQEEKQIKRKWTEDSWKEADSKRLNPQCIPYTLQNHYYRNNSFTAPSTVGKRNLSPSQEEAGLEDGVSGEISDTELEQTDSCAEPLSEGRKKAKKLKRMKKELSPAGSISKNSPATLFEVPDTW
Procedure: The selectivity of the compounds was determined by comparing their activities against Caf1 and two related deadenylase enzymes: the PARN ribonuclease, which has a conserved nuclease domain similar to that of Caf1, and Ccr4, whose biological function is related to Caf1, but which contains a dissimilar EEP-type nuclease domain.[22]
Error bars represent the standard deviation.

[1] = read-out: IC50 (Caf1), fluorescence-based biochemical assay, ± standard error of the mean (n = 3)

Sequence of Caf1 (Q9UIV1 whole entry): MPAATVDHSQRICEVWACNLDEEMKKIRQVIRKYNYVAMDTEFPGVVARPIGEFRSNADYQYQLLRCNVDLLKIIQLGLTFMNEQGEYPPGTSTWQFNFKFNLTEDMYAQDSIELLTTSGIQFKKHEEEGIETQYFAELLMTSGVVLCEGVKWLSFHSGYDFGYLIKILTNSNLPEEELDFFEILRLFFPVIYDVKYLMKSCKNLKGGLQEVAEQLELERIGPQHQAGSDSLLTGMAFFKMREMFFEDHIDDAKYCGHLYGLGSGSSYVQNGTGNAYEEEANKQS

Structure (SMILES): O=c1c2c(ncn2CCc2ccccc2)n(Cc2ccccc2)c(=O)n1O [Compound 8i]
- IC50 (Caf1; [1]): 14.5 ± 0.9 µM

Structure (SMILES): O=c1[nH]c2ncn(CCc3ccccc3)c2c(=O)n1O [Compound 5j]
- inhibition of PARN ribonuclease activity (in words) (PARN): also inhibited the related deadenylase PARN

Structure (SMILES): O=c1[nH]c2cccnc2c(=O)n1O [NSC-193557]
- IC50 (Caf1; [1]): 525 ± 13.9 µM

Structure (SMILES): O=c1[nH]c2ncn(Cc3ccccn3)c2c(=O)n1O [Compound 5c]
- IC50 (PARN): 119 ± 25 µM
- IC50 (Caf1; [1]): 10.6 ± 2.7 µM

Structure (SMILES): O=c1[nH]c2ncn(CCCc3ccccc3)c2c(=O)n1O [Compound 5f]
- IC50 (Caf1; [1]): 13.3 ± 2.3 µM

Structure (SMILES): Cn1c(=O)n(O)c(=O)c2c1ncn2CCc1ccccc1 [Compound 8a]
- IC50 (Caf1; [1]): 9.3 ± 1.7 µM

Structure (SMILES): O=c1[nH]c2ncsc2c(=O)n1O [NSC-116567]
- IC50 (Caf1; [1]): 28.7 ± 3.8 µM

Structure (SMILES): O=c1[nH]c2ncn(Cc3ccccc3)c2c(=O)n1O [Compound 5a]
- IC50 (PARN): 84.1 ± 6.7 µM
- IC50 (Caf1): 22.8 ± 0.1 µM
- IC50 (Caf1; [1]): 10.4 ± 0.4 µM

Structure (SMILES): O=c1[nH]c2ncn(Cc3cccnc3)c2c(=O)n1O [Compound 5d]
- IC50 (PARN): 125 ± 32 µM
- IC50 (Caf1; [1]): 6.6 ± 0.7 µM

Structure (SMILES): O=c1c2c(ncn2CCc2ccccc2)n(CCN2CCOCC2)c(=O)n1O [Compound 8k]
- IC50 (Caf1; [1]): 8.7 ± 0.3 µM

Structure (SMILES): CCCCOCCCn1cnc2[nH]c(=O)n(O)c(=O)c21 [Compound 5g]
- IC50 (Caf1; [1]): 20.6 ± 5.8 µM

Structure (SMILES): O=c1[nH]c2ncn(Cc3ccncc3)c2c(=O)n1O [Compound 5e]
- IC50 (PARN): 245 ± 20 µM

Structure (SMILES): O=c1[nH]c2ncn(CCc3ccccn3)c2c(=O)n1O [Compound 5k]
- inhibition of PARN ribonuclease activity (in words) (PARN): also inhibited the related deadenylase PARN
- IC50 (Caf1; [1]): 4 ± 1.1 µM

Structure (SMILES): O=c1[nH]c2ncn(CCc3cccs3)c2c(=O)n1O [Compound 5h]
- inhibition of PARN ribonuclease activity (in words) (PARN): also inhibited the related deadenylase PARN
- IC50 (Caf1; [1]): 3.6 ± 1.1 µM

Structure (SMILES): O=c1[nH]c2cnn(-c3ccccc3)c2c(=O)n1O [NSC-104148]
- IC50 (Caf1; [1]): 38.6 ± 2.79 µM

Structure (SMILES): CN(C)CCCn1c(=O)n(O)c(=O)c2c1ncn2CCc1ccccc1 [Compound 8j]
- activity versus PARN (in words) (PARN; Table 2, Fig. 3, 3 μM): displayed reduced activity versus PARN
- IC50 (PARN): 23.9 ± 3.7 µM
- increased activity against Caf1 compared to compound 5a (Caf1): > 10 fold
- potency against Caf1 relative to all previously identified compounds (Caf1; compared with the inhibitors of ref 22): > 20 fold
- IC50 (Caf1; [1]): 0.59 ± 0.11 µM
